Consider 11 molecules from ChEMBL document CHEMBL5244239, “Penicillin binding protein 2a: An overview and a medicinal chemistry perspective” (Eur J Med Chem, 2020).

Assay [1] has as its target T1, MecA (Staphylococcus aureus, UniProt Q7DHH4).
T1 sequence (Q7DHH4 whole entry): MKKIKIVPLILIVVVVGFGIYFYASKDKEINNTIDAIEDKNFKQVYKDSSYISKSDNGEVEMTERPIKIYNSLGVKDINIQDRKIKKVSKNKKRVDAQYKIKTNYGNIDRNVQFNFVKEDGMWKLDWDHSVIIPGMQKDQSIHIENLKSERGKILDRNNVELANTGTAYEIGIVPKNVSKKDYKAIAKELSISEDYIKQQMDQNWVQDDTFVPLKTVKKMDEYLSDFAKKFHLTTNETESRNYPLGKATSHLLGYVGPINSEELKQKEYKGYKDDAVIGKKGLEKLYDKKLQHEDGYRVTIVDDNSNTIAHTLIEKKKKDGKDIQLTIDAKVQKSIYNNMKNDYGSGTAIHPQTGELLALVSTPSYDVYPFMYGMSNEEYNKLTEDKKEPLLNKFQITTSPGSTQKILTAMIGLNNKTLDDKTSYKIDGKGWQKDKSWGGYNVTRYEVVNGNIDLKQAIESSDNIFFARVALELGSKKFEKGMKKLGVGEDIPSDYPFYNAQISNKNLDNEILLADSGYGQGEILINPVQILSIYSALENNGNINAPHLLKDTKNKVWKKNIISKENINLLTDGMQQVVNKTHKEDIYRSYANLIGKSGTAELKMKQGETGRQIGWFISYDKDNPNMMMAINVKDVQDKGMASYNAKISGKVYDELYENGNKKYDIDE
The assay can be described thus: Binding affinity to Staphylococcus aureus ATCC 43300 PBP2a.

Assay [2] deals with Staphylococcus aureus. The assay can be described thus: Antibacterial activity against methicillin resistant Staphylococcus aureus ATCC 43300. It is filed as functional.
Assay [3] concerns Staphylococcus aureus. The assay can be described thus: Antibacterial activity against methicillin resistant Staphylococcus aureus mp 1. Type of assay: functional.
The test system of assay [4] is Staphylococcus aureus. Nature of the assay: Antibacterial activity against methicillin sensitive Staphylococcus aureus ATCC 29213. Type of assay: functional.
For assay [5], the system named is Staphylococcus aureus. Nature of the assay: Antibacterial activity against methicillin sensitive Staphylococcus aureus NRS128. Type of assay: functional.
Assay [6] relates to Staphylococcus aureus. Nature of the assay: Antibacterial activity against methicillin sensitive Staphylococcus aureus NRS70. Type of assay: functional.
Assay [7] concerns Staphylococcus aureus. The assay can be described thus: Antibacterial activity against methicillin sensitive Staphylococcus aureus NRS123. It is filed as functional.
Assay [8] deals with Staphylococcus aureus. Nature of the assay: Antibacterial activity against methicillin sensitive Staphylococcus aureus NRS100. Type of assay: functional.
Assay [9] has as its system Staphylococcus aureus. Nature of the assay: Antibacterial activity against methicillin sensitive Staphylococcus aureus NRS119. Type of assay: functional.
For assay [10], the system named is Staphylococcus aureus. The assay can be described thus: Antibacterial activity against methicillin sensitive Staphylococcus aureus NRS120. It is filed as functional.
The test system of assay [11] is Staphylococcus aureus. Nature of the assay: Antibacterial activity against Vancomycin-resistant Staphylococcus aureus 1. Type of assay: functional.
Assay [12] concerns Staphylococcus aureus. Nature of the assay: Antibacterial activity against Vancomycin-resistant Staphylococcus aureus 2. Type of assay: functional.
The target in assay [13] is T2, Penicillin-binding protein 1 (Staphylococcus aureus, UniProt Q53725).
T2 sequence (Q53725 whole entry): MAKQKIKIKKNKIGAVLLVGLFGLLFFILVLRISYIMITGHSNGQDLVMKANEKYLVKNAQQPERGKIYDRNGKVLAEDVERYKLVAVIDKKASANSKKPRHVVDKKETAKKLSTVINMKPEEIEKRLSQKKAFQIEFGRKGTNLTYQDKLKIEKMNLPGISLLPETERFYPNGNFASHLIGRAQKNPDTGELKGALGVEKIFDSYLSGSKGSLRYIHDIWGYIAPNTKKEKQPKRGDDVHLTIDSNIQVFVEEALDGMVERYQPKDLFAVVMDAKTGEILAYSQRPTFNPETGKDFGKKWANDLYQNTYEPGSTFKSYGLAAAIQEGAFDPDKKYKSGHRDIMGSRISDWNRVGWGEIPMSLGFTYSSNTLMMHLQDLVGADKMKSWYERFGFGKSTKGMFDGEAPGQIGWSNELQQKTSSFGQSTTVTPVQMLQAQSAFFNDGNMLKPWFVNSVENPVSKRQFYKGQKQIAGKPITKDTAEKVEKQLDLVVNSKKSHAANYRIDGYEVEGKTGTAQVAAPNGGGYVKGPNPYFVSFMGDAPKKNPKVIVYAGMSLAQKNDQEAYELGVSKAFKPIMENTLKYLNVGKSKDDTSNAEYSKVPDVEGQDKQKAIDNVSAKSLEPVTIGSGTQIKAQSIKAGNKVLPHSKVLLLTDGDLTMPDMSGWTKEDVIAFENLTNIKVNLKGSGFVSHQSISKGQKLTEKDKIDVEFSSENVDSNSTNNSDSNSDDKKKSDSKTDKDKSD
The assay can be described thus: Inhibition of Staphylococcus aureus PBP1.

Assay [14] concerns the target T1, MecA. Nature of the assay: Inhibition of Staphylococcus aureus PBP2a.
Assay [15] concerns Staphylococcus aureus. Nature of the assay: Potentiation of oxacillin against methicillin resistant Staphylococcus aureus assessed as fold increase in oxacillin activity. Type of assay: functional.
For assay [16], the system named is Staphylococcus aureus. Nature of the assay: Antibacterial activity against methicillin resistant Staphylococcus aureus. It is filed as functional.
Assay [17] has as its target T1, MecA. The assay can be described thus: Binding affinity to methicillin resistant Staphylococcus aureus PBP2a by MST method.
The test system of assay [18] is Staphylococcus aureus. The assay can be described thus: Potentiation of oxacillin against methicillin resistant Staphylococcus aureus OM481 assessed as fold increase in oxacillin activity. Type of assay: functional.
Assay [19] relates to Staphylococcus aureus. Nature of the assay: Potentiation of oxacillin against methicillin resistant Staphylococcus aureus OM505 assessed as fold increase in oxacillin activity. It is filed as functional.
The subject of assay [20] is Staphylococcus aureus. Nature of the assay: Potentiation of oxacillin against methicillin resistant Staphylococcus aureus OM584 assessed as fold increase in oxacillin activity. Type of assay: functional.
The test system of assay [21] is Staphylococcus aureus. Nature of the assay: Potentiation of oxacillin against methicillin resistant Staphylococcus aureus OM623 assessed as fold increase in oxacillin activity. Type of assay: functional.
The target of assay [22] is T2, Penicillin-binding protein 1. The assay can be described thus: Binding affinity to methicillin sensitive Staphylococcus aureus PBP1.
The nature of assay [23]: Binding affinity to methicillin sensitive Staphylococcus aureus PBP2.
Assay [24] can be described thus: Binding affinity to methicillin sensitive Staphylococcus aureus PBP3.
In assay [25] the target is T1, MecA. Nature of the assay: Binding affinity to methicillin resistant Staphylococcus aureus PBP2a.
Assay [26] is described as follows: Binding affinity to methicillin sensitive Staphylococcus aureus PBP4.
The test system of assay [27] is Staphylococcus aureus. Nature of the assay: Antibacterial activity against methicillin resistant Staphylococcus aureus TMHS-3125. It is filed as functional.
Assay [28] has as its system Staphylococcus aureus. The assay can be described thus: Antibacterial activity against methicillin resistant Staphylococcus aureus TMHS-5006. It is filed as functional.
Assay [29] has as its system Staphylococcus aureus. Nature of the assay: Antibacterial activity against methicillin resistant Staphylococcus aureus TMHS-5007. Type of assay: functional.
The test system of assay [30] is Staphylococcus aureus. Nature of the assay: Antibacterial activity against methicillin resistant Staphylococcus aureus 4977. It is filed as functional.
The test system of assay [31] is Staphylococcus aureus. Nature of the assay: Antibacterial activity against methicillin resistant Staphylococcus aureus 13101. Type of assay: functional.

Molecules are shown by their SMILES. pIC50, pKd: −log10 of the molar value. ≈ marks a conversion by molar mass, not a printed value.

For `CCCOc1cccc(C(=O)Nc2ccc(C)cc2C(=O)O)c1`, in assay [1], the negative logarithm of the IC50 (pIC50) was 3.17. The MIC in assay [2] and in [3] was 256 µg/mL (≈ 817 µM) each time.

For the molecule `N#Cc1ccc(/C=C/c2nc3ccccc3c(=O)n2-c2cccc(C(=O)O)c2)cc1`, the MIC in assay [4], in [5], in [6], in assay [7], in assay [8] and in [9] was 2 µg/mL (≈ 5.08 µM) throughout. Further, the MIC in assay [10], in [11] and in assay [12] was 2 µg/mL (≈ 5.08 µM) throughout. Also, in [13], the IC50 is 78 µg/mL (≈ 198 µM). Also, the pIC50 in [14] was 3.45.

Take `C=C1CCC[C@@H]2Nc3ccc(Br)cc3[C@]12CCNS(=O)(=O)c1ccc(Cl)cc1`: the “fold change (FC)” value in [15] was found to be 128.

`C#Cc1ccc(/C=C/c2nc3ccccc3c(=O)n2-c2cccc(C(=O)O)c2)cc1` had an MIC in [16] of 0.03 µg/mL (≈ 0.0764 µM).

In turn, `CCCOc1ccc2cc(C(=O)Nc3ccc(Br)cc3C(=O)O)ccc2c1` gave a negative logarithm of the IC50 (pIC50) in assay [1] of 3.68. Also, the MIC in assay [2] and in assay [3] was 128 µg/mL (≈ 299 µM) throughout.

Regarding `COC(=O)C1=C[C@]2(C)C[C@@]34CC[C@@H]5[C@H](C=CC(=O)C5(C)C)[C@]35OC[C@]14[C@](C)(CC2=O)O5`, the MIC in assay [16] stood at 32 µg/mL (≈ 75 µM). Also, in assay [17], the pKd is 4.74.

In [1], `CCCOc1cccc(C(=O)Nc2ccc(Br)cc2C(=O)O)c1` had a pIC50 of 3.64. Moreover, the MIC in assay [2] and in assay [3] was 32 µg/mL (≈ 84.6 µM) each time.

On to `O=C(O[C@@H]1O[C@@H]2COC(=O)c3cc(O)c(O)c(O)c3-c3c(cc(O)c(O)c3O)C(=O)O[C@H]([C@H]1O)[C@@H]2O)c1cc(O)c(O)c(O)c1` [CORILAGIN], for which the “fold change (FC)” value in [18], in assay [19], in [20] and in assay [21] was 100 in each case.

In the case of `CC(=O)/C(=C/c1cn(CC(=O)N2CCCCC2)c2ccccc12)n1cc([N+](=O)[O-])nc1C`, in [16], it took 1 µg/mL (≈ 2.3 µM) to inhibit growth (MIC).

On to `CCO/N=C(\C(=O)N[C@@H]1C(=O)N2C(C(=O)[O-])=C(Sc3nc(-c4cc[n+](C)cc4)cs3)CS[C@H]12)c1nsc(N)n1` [CEFTAROLINE], for which the negative logarithm of the IC50 (pIC50) in [22] was 6.78; in assay [25], 6.58. Besides, the figures for the IC50 in assay [23], in assay [24] and in assay [26] were 0.1 µg/mL (≈ 0.165 µM), 0.1 µg/mL (≈ 0.165 µM) and greater than 1 µg/mL, respectively. In addition, the MIC in assay [27] is greater than 32 µg/mL; in assay [28] it was greater than 32 µg/mL; in assay [29], greater than 32 µg/mL; in [30], 2 µg/mL (≈ 3.31 µM); in [31], 2 µg/mL (≈ 3.31 µM).

Turning to `CC1(C)S[C@@H]2[C@H](N)C(=O)N2[C@H]1C(=O)O`, in assay [14], the pIC50 is 2.15.

What is called pIC50 is the negative decadic logarithm of the IC50, by convention in mol/L. By MIC is commonly meant the smallest concentration in the dilution series that meets the test's criterion for growth inhibition. For orientation: IC50 means the midpoint of a concentration-inhibition curve. A lower IC50 goes with greater potency in that assay. Broadly, the pKd is the Kd on a negative log10 scale, so that one unit is a factor of ten. A lower pKd goes with a high Kd.
